Our source for the TGI and GI50 values is PubChem BioAssay (NCI).

Holding throughout (experiment): NCI-60 cell line screen, 48 h
Test [1] deals with TK-10 renal.
In test [2] the test system is OVCAR-3 ovarian.
In test [3] the test system is UO-31 renal.
The test system of test [4] is EKVX NSCLC.
In test [5] the test system is NCI-H23 lung.
The test system of test [6] is 786-0 renal.
Test [7] has as its system OVCAR-5 ovarian.
The subject of test [8] is HT29 colon.
Test [9] relates to NCI/ADR-RES ovarian.
Test [10] relates to SN12C renal.

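Compound exposure: 48 hours, 5 concentrations, 96-well plates. At the GI50, growth is halved. The concentration for full growth arrest is given as TGI.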

As to `O=C(Cc1ccccc1)NN1C(=O)/C(=C\c2ccccc2)SC1=Nc1ccccc1`, the TGI in [1], in test [2], in test [3], in test [4], in test [5] and in test [6] was more than 100 µM throughout. Further, the TGI in [7], in test [8], in test [9] and in test [10] was more than 100 µM throughout.
Regarding `COC(C)(C)[C@@H](O)[C@H]1C[C@H](C)[C@@]2(CC[C@]3(C)[C@@H]2CC[C@@H]2[C@@]4(C)CC[C@@H](OC(C)=O)C(C)(C)[C@@H]4C[C@@H](OC4OC(COC(C)=O)C(O)C(O)C4O)[C@]23C)O1` (stereo partly drawn), the TGI is 24.6 µM in test [1]; 15.3 µM in test [2]; 15.5 µM in [3]; 19.5 µM in test [4]; 25.8 µM in test [5]; 18.7 µM in test [6]. Also, the TGI in [7] is 7.18 µM; in test [8], 4.07 µM; in test [9], 22.5 µM; in [10] it was 19.4 µM.
As to `C/C1=C\CC[C@@]2(C)O[C@@H]2C[C@@H](C2(C)CO2)CC/C(C)=C/CC1` (stereo partly drawn), the TGI in test [1] stood at 32.5 µM; in [2] it was 48.9 µM; in test [3], 55.9 µM; in test [4] it was 36.1 µM; in [5], 48.8 µM; in [6] it was 31.8 µM. Further, the TGI was 50 µM in [7], more than 100 µM in test [8], 46.8 µM in test [9] and 33.5 µM in test [10].
With `COc1cc2cc(Oc3ccc(NC(=O)c4cc(C(F)(F)F)cc(C(F)(F)F)c4)cc3)c(C)nc2cc1OC`, the GI50 in test [1] was 3.82 µM; in test [2] it was 1.96 µM; in test [3] it was 2.6 µM; in test [4] it was 2.04 µM; in test [5] it was 2.71 µM; in test [7] it was more than 50 µM. Besides, the GI50 in test [8] was more than 50 µM; in [9], 2.61 µM; in test [10] it was 3.49 µM. Further, the TGI in test [1], in test [2], in test [3], in test [4], in [5] and in [7] was more than 50 µM in each case. Further, the TGI in test [8], in [9] and in test [10] was more than 50 µM in each case.
Take `O=C(NCCCN(CCCCN(CCCNC(=O)C(F)(F)F)Cc1ccc2ccccc2c1)Cc1ccc2ccccc2c1)C(F)(F)F`: the TGI in test [1], in test [2], in test [3], in test [4], in test [6] and in [7] was more than 100 µM in each case. Besides, the TGI is 2.57 µM in [8], more than 100 µM in test [9] and more than 100 µM in test [10].
On to `Cc1ccc(CC[P+](=O)CCc2ccc(C)nc2)cn1`, for which the TGI in test [1], in test [2], in test [4], in test [5], in test [6] and in test [7] was more than 100 µM each time. Further, the TGI in [8], in [9] and in [10] was more than 100 µM each time.
On to `COc1ccc(/C=C2\C[C@H]3[C@@H]4CCC5=C/C(=N/O)CC[C@]5(C)[C@H]4CC[C@]3(C)\C2=N\O)cc1OC`, for which the TGI is more than 100 µM in test [2]; more than 100 µM in [3]; 32 µM in test [4]; more than 100 µM in test [5]; more than 100 µM in test [6]; more than 100 µM in test [7]. Also, the TGI in test [8], in test [9] and in [10] was more than 100 µM in each case.
Consider `CCN1CCCC(NCc2c3ccccc3c(CNC3CCCN(CC)C3)c3ccccc23)C1` (stereo not drawn), for which the TGI in test [2] is 26.1 µM; in [3] it was 53.4 µM; in test [4], 35.9 µM; in test [5], 34.8 µM; in [7], 19.8 µM; in [8], more than 37.5 µM. For the same molecule, the TGI in test [9] came to 79.7 µM; in test [10] it was 40.3 µM.
Regarding `Cc1cn(-c2cc(C(=O)Nc3cccc(-n4ccc5c(NC(=O)c6ccccc6)nccc54)c3)cc(C(F)(F)F)c2)cn1`, the GI50 was 0.855 µM in [1]; 0.313 µM in test [2]; 1.1 µM in test [3]; 2.32 µM in test [4]; 1.06 µM in test [5]; 0.802 µM in [7]. In addition, the figures for the GI50 in test [8], in test [9] and in test [10] were 0.29 µM, 1.13 µM and 1.04 µM, respectively. Further, the TGI in test [1] was 5.27 µM; in test [2] it was 1.03 µM; in test [3], 14.9 µM; in test [4], 30.2 µM; in test [5], 19.9 µM; in test [7], 14.6 µM. For the same molecule, the TGI is 1.04 µM in [8], more than 33.4 µM in test [9] and 17.1 µM in test [10].
For the molecule `CCOC(CNCCC(=O)OC)OCC`, the TGI in test [1], in test [2], in test [3], in [4], in test [5] and in test [6] was more than 10 µM throughout. In addition, the TGI in test [8], in [9] and in test [10] was more than 10 µM in each case.
Regarding `CC(=O)c1cccn1/C=C(\OC(=O)OC(C)(C)C)c1ccc[nH]1`, the TGI in [1], in test [2], in [3], in test [4], in [5] and in test [6] was more than 100 µM throughout. For the same molecule, the TGI in test [7], in test [9] and in [10] was more than 100 µM in each case.
Turning to `O=c1[nH]cnc2c1ncn2[C@@H]1C[C@@H]1CO`, the TGI in test [1], in test [3], in test [4], in test [5], in test [6] and in test [7] was more than 100 µM throughout. Also, the TGI in test [8], in test [9] and in test [10] was more than 100 µM each time.
